What was measured:
[1] = target: T1, Nitric oxide synthase 3 (Bos taurus, UniProt P29473)
T1 sequence (P29473 whole entry): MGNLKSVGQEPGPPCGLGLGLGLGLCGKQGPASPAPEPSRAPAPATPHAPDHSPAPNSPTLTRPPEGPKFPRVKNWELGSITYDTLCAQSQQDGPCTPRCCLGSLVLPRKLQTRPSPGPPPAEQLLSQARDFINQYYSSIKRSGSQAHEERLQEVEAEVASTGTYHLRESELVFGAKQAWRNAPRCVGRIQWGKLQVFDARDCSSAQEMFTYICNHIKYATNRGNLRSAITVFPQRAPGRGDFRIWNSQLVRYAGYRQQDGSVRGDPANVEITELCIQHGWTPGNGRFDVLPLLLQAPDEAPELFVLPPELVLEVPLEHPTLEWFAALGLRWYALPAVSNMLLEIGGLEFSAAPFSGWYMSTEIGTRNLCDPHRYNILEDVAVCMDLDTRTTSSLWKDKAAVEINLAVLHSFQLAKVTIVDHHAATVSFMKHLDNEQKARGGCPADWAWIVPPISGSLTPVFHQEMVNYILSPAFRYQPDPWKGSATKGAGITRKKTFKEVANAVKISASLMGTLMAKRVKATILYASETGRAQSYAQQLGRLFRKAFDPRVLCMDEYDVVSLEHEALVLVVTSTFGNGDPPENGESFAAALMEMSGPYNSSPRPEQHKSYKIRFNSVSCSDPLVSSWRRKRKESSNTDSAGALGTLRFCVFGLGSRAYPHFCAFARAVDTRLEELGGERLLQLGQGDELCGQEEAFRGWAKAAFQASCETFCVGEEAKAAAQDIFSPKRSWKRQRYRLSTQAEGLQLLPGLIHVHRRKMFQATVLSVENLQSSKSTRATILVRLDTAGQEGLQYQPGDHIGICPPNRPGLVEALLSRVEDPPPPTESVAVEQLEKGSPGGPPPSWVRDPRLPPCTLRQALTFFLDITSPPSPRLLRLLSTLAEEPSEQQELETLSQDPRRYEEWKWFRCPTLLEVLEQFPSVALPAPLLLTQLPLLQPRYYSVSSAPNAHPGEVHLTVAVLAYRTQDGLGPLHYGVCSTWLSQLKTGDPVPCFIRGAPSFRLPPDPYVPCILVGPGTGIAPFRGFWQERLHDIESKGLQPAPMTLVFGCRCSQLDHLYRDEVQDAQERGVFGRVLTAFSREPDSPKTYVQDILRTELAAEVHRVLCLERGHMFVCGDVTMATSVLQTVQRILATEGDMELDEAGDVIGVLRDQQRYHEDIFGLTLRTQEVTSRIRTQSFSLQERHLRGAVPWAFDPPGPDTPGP

[2] = target: Nitric oxide synthase 1 (Rattus norvegicus, UniProt P29476)
[3] = target: T2, Nitric oxide synthase, inducible (Mus musculus, UniProt P29477)
T2 sequence (P29477 whole entry): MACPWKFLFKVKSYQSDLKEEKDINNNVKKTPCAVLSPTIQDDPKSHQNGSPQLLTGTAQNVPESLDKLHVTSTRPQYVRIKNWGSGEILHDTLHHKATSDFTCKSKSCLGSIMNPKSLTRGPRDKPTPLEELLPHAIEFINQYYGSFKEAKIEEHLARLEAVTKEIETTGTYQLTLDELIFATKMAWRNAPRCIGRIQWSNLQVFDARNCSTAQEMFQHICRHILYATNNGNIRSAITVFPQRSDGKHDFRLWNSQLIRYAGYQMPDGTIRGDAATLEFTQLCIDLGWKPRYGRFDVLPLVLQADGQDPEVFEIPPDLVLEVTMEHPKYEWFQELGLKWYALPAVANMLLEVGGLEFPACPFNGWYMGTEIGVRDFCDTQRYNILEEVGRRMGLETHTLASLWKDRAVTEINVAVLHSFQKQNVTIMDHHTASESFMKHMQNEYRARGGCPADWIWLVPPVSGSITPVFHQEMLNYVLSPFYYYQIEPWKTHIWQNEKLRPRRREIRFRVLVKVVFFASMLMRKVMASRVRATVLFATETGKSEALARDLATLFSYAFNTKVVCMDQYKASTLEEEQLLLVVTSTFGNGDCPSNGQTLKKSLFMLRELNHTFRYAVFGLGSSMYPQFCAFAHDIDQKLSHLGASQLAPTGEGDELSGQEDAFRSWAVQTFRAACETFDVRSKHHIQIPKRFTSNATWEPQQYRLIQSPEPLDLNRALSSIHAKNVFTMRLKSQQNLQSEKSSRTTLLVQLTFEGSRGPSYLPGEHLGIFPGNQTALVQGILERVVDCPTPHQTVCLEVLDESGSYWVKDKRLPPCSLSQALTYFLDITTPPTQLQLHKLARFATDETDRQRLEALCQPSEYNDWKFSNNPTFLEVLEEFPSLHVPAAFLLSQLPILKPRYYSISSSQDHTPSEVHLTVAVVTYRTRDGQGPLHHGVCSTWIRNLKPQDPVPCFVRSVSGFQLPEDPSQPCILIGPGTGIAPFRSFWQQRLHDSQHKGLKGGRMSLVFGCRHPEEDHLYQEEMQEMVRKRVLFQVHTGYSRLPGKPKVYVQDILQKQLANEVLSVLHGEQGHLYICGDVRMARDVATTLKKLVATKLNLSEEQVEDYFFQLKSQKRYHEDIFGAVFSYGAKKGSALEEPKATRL

Chain of Nitric oxide synthase 1 (P29476 whole entry): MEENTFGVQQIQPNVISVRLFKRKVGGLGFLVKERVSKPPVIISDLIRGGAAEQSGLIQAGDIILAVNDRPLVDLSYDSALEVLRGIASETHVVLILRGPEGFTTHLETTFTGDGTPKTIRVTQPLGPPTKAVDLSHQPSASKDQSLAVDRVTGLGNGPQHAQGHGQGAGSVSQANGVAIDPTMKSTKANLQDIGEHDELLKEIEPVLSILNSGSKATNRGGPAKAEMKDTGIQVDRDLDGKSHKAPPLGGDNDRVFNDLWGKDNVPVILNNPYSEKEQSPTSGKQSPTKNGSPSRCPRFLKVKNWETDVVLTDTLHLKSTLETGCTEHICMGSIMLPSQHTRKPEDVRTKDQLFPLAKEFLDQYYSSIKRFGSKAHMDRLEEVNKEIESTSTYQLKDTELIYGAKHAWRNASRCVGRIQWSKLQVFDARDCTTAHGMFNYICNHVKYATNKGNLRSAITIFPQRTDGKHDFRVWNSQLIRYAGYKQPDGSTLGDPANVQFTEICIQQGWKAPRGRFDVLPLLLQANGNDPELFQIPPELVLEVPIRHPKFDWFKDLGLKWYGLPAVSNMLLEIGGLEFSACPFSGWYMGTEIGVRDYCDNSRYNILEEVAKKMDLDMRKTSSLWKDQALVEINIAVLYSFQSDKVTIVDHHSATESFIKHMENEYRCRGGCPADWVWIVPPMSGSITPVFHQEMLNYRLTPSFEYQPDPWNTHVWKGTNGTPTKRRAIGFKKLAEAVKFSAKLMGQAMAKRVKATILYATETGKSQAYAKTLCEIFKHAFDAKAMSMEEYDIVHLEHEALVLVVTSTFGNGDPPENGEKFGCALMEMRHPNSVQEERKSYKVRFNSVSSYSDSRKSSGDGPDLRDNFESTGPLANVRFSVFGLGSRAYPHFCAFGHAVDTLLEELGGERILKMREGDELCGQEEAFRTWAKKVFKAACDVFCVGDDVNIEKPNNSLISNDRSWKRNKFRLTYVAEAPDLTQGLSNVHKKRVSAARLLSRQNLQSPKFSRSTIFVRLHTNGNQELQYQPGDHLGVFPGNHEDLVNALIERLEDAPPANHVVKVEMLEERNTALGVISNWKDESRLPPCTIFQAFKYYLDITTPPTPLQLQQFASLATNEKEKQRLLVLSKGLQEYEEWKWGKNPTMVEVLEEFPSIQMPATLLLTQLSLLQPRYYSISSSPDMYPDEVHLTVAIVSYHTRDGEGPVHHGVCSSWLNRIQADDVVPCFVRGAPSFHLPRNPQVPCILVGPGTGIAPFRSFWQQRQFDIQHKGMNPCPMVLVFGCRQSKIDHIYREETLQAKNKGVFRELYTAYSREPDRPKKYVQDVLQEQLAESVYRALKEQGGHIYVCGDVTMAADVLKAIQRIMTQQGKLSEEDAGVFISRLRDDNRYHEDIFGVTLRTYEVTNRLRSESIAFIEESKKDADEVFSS

Ki [1] [µM] | Ki [2] [nM] | Ki [3] [µM] | Structure (SMILES)
424 | 1360 | 200 | Nc1cccc(C[C@H]2CNC[C@H]2N[C@@H]2CCNC2)n1 (racemic)
181 | 2740 | 425 | Nc1cccc(C[C@H]2CNC[C@H]2N[C@@H]2CCN(Cc3ccccc3)C2)n1 (racemic)
108 | 3340 | 222 | Nc1cccc(C[C@H]2CNC[C@H]2N[C@H]2CCN(Cc3ccccc3)C2)n1 (racemic)
 | 206 |  | Cc1cc(N)nc(C[C@H]2CNC[C@H]2NCCNCc2cccc(C(F)(F)F)c2)c1 (racemic)
72 | 159 | 9.01 | Cc1cccc(CNCCN[C@@H]2CNC[C@@H]2Cc2cc(C)cc(N)n2)c1 (racemic)
41 | 157 | 3.56 | Cc1cc(N)nc(C[C@H]2CNC[C@H]2NCCNCc2ccc(Cl)c(Cl)c2)c1 (racemic)
30 | 110 | 7.7 | Cc1cc(N)nc(C[C@H]2CNC[C@H]2NCCNCc2ccc(Cl)cc2Cl)c1 (racemic)
40 | 136 | 12.2 | Cc1cc(N)nc(C[C@H]2CNC[C@H]2NC[C@H](C)NCc2ccc(Cl)cc2)c1 (racemic)
84 | 197 | 14.1 | Cc1cc(N)nc(C[C@H]2CNC[C@H]2NCCNCc2ccc(C(F)(F)F)cc2)c1 (racemic)
130 | 144 | 7.97 | Cc1cc(N)nc(C[C@H]2CNC[C@H]2NCCNCc2ccc(F)cc2)c1 (racemic)
18 | 27 | 4.6 | Cc1cc(N)nc(C[C@H]2CNC[C@H]2NCCNCCc2ccc(F)cc2)c1 (racemic)
141 | 18800 | 232 | Cc1cc(C[C@H]2CNC[C@H]2NCCNCc2ccc(Cl)cc2)cc(N)n1 (racemic)
92.4 | 326 | 38.2 | Cc1cc(N)nc(C[C@H]2CNC[C@H]2N(C)CCNCCc2cccc(F)c2)c1 (racemic)
1450 | 2420 | 238 | Nc1cccc(C[C@H]2CNC[C@H]2NC[C@H](N)Cc2ccccc2)n1 (racemic)
1450 | 2300 | 297 | Nc1cccc(C[C@H]2CNC[C@H]2NC[C@@H](N)Cc2ccccc2)n1 (racemic)
125 |  |  | Cc1cc(N)nc(C[C@H]2CNC[C@H]2N(C)CCNCc2ccc(Cl)cc2)c1 (racemic)
243 | 1260 | 174 | Nc1cccc(C[C@H]2CNC[C@H]2N[C@H]2CCNC2)n1 (racemic)
1450 | 1180 | 161 | Nc1cccc(C[C@H]2CNC[C@H]2NCCNCc2ccccc2)n1 (racemic)
48.9 | 1210 | 56.6 | Cc1cc(N)nc(C[C@H]2CNC[C@H]2N(C)CCN(C)CCc2cccc(F)c2)c1 (racemic)
140 | 3330 | 195 | CN(C)CCN[C@@H]1CNC[C@@H]1Cc1cccc(N)n1 (racemic)

Structure (SMILES) | Ki [1] [µM] | Ki [2] [nM] | Ki [3] [µM]
CC(=O)[C@@H]1C[C@@H](NC(=O)[C@@H](N)CCCNC(=N)N[N+](=O)[O-])CN1 | 128 | 100 | 29
CC(=O)[C@H]1CNC[C@@H]1NC(=O)[C@@H](N)CCCNC(=N)N[N+](=O)[O-] | 200 | 87 | 5.76
Cc1cc(C[C@H]2CNC[C@H]2NCCNCCc2cccc(F)c2)cc(N)n1 (racemic) | 164 | 551 | 10.6

— ChEMBL document CHEMBL1143351 (J Med Chem, 2009)
